The values that follow come from paper PMC7180456, “Multitarget Anticancer Agents Based on Histone Deacetylase and Protein Kinase CK2 Inhibitors” (Molecules, 2020).

Like-named read-outs stand apart in the source and are kept apart here.

For one data set, the system named is HDAC. Further details: method as in PMID 29733427. Particulars: Figure 2; read-out: IC50 of FDA-approved HDAC inhibitors; cited from earlier work.
The test system of another data set is CK2. Particulars: Figure 3; read-out: CK2 IC50 of previously described dual inhibitors; cited from earlier work.
In the next data set the test system is HDAC1. Further details: method as in doi:10.1039/C6RA09717K. The settings on record: Figure 3; read-out: HDAC1 IC50 of previously described dual inhibitors; cited from earlier work.
For data set [1], the system named is human tumor and pseudonormal cell lines. In words: Cytotoxicity, trypan blue assay, range over the cell lines tested. The class given is cell-based. The settings on record: 24 h, read-out: LC50 range depending on cell line. An excerpt:
(§1) Statistical significance was set at P ≤ 0.05.

Data set [2] relates to breast adenocarcinoma cells of MCF-7 line. Briefly: Cytotoxicity, trypan blue exclusion assay, 24 h. Particulars: Homo sapiens.
Method: (§4) Walter Berger, Institute of Cancer Research, Vienna Medical University. Human embryonal kidney cells of HEK293 line were obtained from cell culture collection of R.E. Kavetsky Institute of Experimental Pathology, Oncology and Radiobiology, National Academy of Sciences of Ukraine (Kyiv, Ukraine).
(§5) Cells were seeded (5 × 10^5/mL for leukemia cells and 1 × 10^5/mL for carcinoma cells) into 24-well tissue culture plates (Greiner Bio-one, Frickenhausen, Germany) and were permitted to adhere and grow for 24 h before the experiment. Short-term (24 h) cytotoxic effect of antitumor drugs was studied under the Evolution 300 Trino microscope (Delta Optical, Nowe Osiny, Poland) after cell staining with trypan blue dye (0.1%).
(§6) Final concentration of DMSO in cell culture was 0.5% or less.
(§7) All experiments were performed in triplicate and repeated three times. Statistical analysis of data was conducted in GraphPad Prism 7.0 Software (GraphPad Software, Inc.) using Student’s t test. Statistical significance was set at P ≤ 0.05. Evaluation of LC50 values of each compound was done by built-in functions of GraphPad Prism (non-linear regression, curve fit, [Inhibitor] vs. normalized response - Variable slope).
The test system of another data set is Jurkat T-leukemia cells. In words: Cytotoxicity, trypan blue exclusion assay, 24 h. The settings on record: Homo sapiens.
In a further data set the target is T1, human recombinant HDAC1 (Homo sapiens, UniProt Q13547).
T1 construct: purchased Enzo Life Sciences, Inc
In words: HDAC1 inhibition, fluorometric method (Enzo Fluorometric Drug Discovery Assay Kit). The class given is biochemical. Particulars: read-out: Inhibitory activity IC50 on HDAC1. Here is the method:
The inhibitory activities of the synthesized compounds were determined against CK2 and HDAC1 and the IC50 values are collected in Table 1. The activity towards human recombinant HDAC1 was tested using a fluorometric method. CK2 inhibitory activity was determined by a radiometric method, using a short peptide ([…]) as a substrate.
(§2) 15 µL of HDAC1 (0.4 µg/well) or HDAC6 (0.5 µg/well) were incubated at 37 °C for 30 minutes with 10 µL of inhibitor diluted in 5% DMSO and 25 µL of fluorogenic substrate (0.05 µL/well of 5 mM solution). Reactions were stopped with the developer and trichostatin A, diluted in buffer without BSA, and the plate was incubated at 30 °C for 45 min, followed by measuring the fluorescence (Ex. 360 nm, Em. 450 nm, Fluoroskan, Thermo Scientific).

The subject of another data set is HL-60/wt cells. Briefly: Depolarization of mitochondria, JC-1 assay, FACS. It is filed as cell-based, human. Particulars: 24 h.
The subject of data set [3] is HL-60/vinc (vincristine-resistant, P-gp overexpression). Briefly: Cytotoxicity, trypan blue exclusion assay, 24 h. It is filed as cell-based. The settings on record: Homo sapiens, HL60/vinc.
From the text: (§3) Taking into consideration the high abundance of CK2 kinase in leukemia and lymphomas, the ability of selected CK2-HDAC dual inhibitors to circumvent MDR was investigated in human leukemia cells of HL-60 line and its doxorubicin-resistant (HL-60/adr, MRP-1 overexpression) and vincristine-resistant (HL-60/vinc, P-gp overexpression) sublines.
as §1

The test system of data set [4] is HL-60/adr (doxorubicin-resistant, MRP-1 overexpression). Briefly: Cytotoxicity, trypan blue exclusion assay, 24 h. It is filed as cell-based. The settings on record: Homo sapiens, HL60/ADR.
From the text: as §3, §1

In data set [5] the test system is leukemia cells of HL-60 line. Briefly: Cytotoxicity, trypan blue exclusion assay, 24 h. It is filed as cell-based. The settings on record: Homo sapiens.
From the text: as §3, §1

The nature of data set [6]: Cytotoxicity, trypan blue exclusion assay, 24 h (pseudonormal cells). Particulars: human, HEK293 embryonic kidney cells (pseudonormal).
Method: as §4, §5, §6, §7
Another data set deals with T2, human recombinant CK2α (Homo sapiens, UniProt P68400).
T2 construct: GST; made in house; host or cells: bacteria
In words: CK2 inhibition, radiometric method with peptide substrate […]. It is filed as biochemical. As for the experimental part: The activity towards human recombinant HDAC1 was tested using a fluorometric method. CK2 inhibitory activity was determined by a radiometric method, using a short peptide ([…]) as a substrate.
Recombinant human protein kinase GST-CK2 was produced in bacteria and purified as described elsewhere. […] The reaction buffer contained 20 µM [γ-32P] ATP (specific radioactivity 300–1000 cpm/pmol), 15 mM Mg^2+, 20 mM Tris–HCl pH 7.5, and 6 mM 2-mercaptoethanol. 10 µL of the assay mixture was spotted onto a square (1 cm/1 cm) of Whatman P81 paper and allowed to dry. Each square was immersed in cold 0.5% phosphoric acid, and washed three times during 10 min, allowed to dry and transferred into a vessel containing Opti-Phase liquid (scintillation solution) and radioactivity was quantified using a scintillation counter (MicroBeta, Perkin Elmer) by Cerenkov counting. All experiments were performed in triplicate. IC50 values were calculated using GraphPad Prism (version 4.0) software.

The next data set has as its target T3, HDAC6 (Homo sapiens, UniProt Q9UBN7).
T3 construct: purchased Enzo Life Sciences, Inc
T3 sequence (Q9UBN7 1-1215): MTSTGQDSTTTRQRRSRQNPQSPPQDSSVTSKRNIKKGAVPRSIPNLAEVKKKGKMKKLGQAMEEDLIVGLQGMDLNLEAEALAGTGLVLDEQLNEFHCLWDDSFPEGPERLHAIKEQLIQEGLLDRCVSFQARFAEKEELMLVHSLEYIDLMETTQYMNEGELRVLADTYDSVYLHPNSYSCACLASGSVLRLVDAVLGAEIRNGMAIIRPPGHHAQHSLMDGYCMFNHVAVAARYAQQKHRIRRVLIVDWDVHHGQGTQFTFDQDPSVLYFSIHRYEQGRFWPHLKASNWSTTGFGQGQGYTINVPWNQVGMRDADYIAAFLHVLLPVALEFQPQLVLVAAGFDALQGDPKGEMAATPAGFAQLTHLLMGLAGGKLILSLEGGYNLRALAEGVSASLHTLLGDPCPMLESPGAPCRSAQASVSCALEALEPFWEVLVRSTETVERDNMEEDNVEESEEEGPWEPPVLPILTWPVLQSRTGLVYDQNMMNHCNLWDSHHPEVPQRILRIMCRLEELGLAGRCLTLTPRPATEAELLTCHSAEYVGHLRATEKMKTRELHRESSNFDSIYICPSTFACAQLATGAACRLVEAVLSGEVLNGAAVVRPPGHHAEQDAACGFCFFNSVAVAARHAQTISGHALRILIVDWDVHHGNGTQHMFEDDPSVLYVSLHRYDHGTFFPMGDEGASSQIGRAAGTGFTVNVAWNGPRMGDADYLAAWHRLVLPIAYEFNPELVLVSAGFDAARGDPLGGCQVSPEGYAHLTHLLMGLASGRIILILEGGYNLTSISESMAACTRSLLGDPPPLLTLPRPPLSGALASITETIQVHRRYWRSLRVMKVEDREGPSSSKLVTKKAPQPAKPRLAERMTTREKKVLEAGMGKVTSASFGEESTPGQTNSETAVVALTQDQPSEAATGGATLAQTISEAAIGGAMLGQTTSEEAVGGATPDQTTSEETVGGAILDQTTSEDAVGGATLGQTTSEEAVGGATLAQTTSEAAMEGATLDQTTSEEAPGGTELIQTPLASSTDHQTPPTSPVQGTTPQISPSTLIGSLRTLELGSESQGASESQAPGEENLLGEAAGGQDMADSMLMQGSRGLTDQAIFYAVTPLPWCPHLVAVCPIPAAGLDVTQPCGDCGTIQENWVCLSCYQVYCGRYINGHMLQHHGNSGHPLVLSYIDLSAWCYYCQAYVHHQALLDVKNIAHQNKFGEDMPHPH
Briefly: HDAC6 inhibition, fluorometric method (Enzo Fluorometric Drug Discovery Assay Kit). Particulars: read-out: Inhibitory activity IC50 on HDAC6. It is filed as biochemical. Here is the method: For this reason, we analyzed the activity of 15 and 19, together with other compounds from the alkyl and triazole series in HDAC6, tested using a fluorometric method (Table 1).
as §2

Data set [7] deals with HCT-116 colon carcinoma cells. In words: Cytotoxicity, trypan blue exclusion assay, 24 h. The settings on record: Homo sapiens.
Method: as §4, §5, §6, §7
The next data set addresses HDAC-6. The settings on record: Figure 4; read-out: Ki, HDAC-6 inhibitor; cited from earlier work.
A further data set relates to two mammalian cell lines. Further details: method as in doi:10.1039/C6RA09717K. Particulars: cited from earlier work.
The next data set relates to HL-60/vinc line. Further details: method as in PMID 17904109. Particulars: cited from earlier work.
In another data set the test system is HL-60/adr line. Further details: method as in PMID 17904109. The settings on record: cited from earlier work.

A word on the IC50: it is the concentration at which inhibition is half-maximal. As a reminder, the Ki is the equilibrium dissociation constant of an inhibitor or competing ligand from its target.

T2 sequence (P68400 whole entry): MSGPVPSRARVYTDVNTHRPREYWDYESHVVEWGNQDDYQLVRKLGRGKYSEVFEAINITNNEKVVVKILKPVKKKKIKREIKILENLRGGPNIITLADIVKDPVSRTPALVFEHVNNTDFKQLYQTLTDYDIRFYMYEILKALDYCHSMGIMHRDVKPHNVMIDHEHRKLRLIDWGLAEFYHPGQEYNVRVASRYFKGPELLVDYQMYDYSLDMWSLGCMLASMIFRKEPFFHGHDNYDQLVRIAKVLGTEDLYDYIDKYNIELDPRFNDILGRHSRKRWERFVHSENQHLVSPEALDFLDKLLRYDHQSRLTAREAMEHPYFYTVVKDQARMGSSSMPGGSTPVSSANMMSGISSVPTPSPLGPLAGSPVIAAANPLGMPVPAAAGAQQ
T1 sequence (Q13547 whole entry): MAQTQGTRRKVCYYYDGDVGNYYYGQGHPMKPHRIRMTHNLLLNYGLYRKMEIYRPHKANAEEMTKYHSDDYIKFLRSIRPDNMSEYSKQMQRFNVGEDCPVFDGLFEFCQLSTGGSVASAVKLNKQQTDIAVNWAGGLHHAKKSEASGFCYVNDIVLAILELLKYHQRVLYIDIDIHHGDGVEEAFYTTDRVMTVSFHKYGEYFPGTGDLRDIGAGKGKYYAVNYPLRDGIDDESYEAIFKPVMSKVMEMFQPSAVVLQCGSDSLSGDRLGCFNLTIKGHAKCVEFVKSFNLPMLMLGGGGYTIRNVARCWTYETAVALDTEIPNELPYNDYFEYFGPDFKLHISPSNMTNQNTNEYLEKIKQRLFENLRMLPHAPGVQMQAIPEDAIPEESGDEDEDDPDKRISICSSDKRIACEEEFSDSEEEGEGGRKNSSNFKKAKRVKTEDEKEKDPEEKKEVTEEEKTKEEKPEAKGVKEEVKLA
Method for Jurkat T-leukemia cells: as §4, §5, §6, §7

With `Cc1[nH]c2ccccc2c1CCNCc1ccc(/C=C/C(=O)NO)cc1` [Panobinostat], in the data set with HDAC, the IC50 was 0.005 to 0.02 µM.
Consider `O=C(CCn1cc(CCn2nnc3c(Br)c(Br)c(Br)c(Br)c32)nn1)NO` [Compound 1], for which the IC50 with CK2 is 5.4 µM; with HDAC1 it was 5 µM.
`CN(C)c1nc2c(Br)c(Br)c(Br)c(Br)c2n1CCCCCCC(=O)NO` [Compound 11c, N-Hydroxy-7-(4,5,6,7-tetrabromo-2-(dimethylamino)-1H-benzo[d]imidazol-1-yl)heptanamide]: the CC50 in data set [1] is 1.9 to 13.6 µM; in [2] (MCF7, 24 h, read-out: LC50 Values of Compounds for Cell Line, MCF-7) it was 9.97 ± 0.99 µM; in data set [2] (MCF7, read-out: LC50 values of compounds for cell line, MCF-7), 9.02 µM; with Jurkat T-leukemia cells (24 h, read-out: LC50 Values of Compounds for Cell Line, Jurkat), 9.47 ± 1.1 µM; in the data set on Jurkat T-leukemia cells (read-out: LC50 values of compounds for cell line, Jurkat), 5.63 µM; in data set [3] (Table 2, trypan blue, 24 h, M ± SD, read-out: LC50 Values of Compounds for Cell Line, HL-60/vinc), 12.1 ± 3.27 µM. For the same compound, the CC50 stood at 2.49 µM in data set [3] (supplement Table 4S, M±SD, read-out: LC50 values of compounds for cell line, HL-60/vinc); 10.6 ± 1.53 µM in [4] (Table 2, trypan blue, 24 h, M ± SD, read-out: LC50 Values of Compounds for Cell Line, HL-60/adr); 8.4 µM in data set [4] (supplement Table 4S, M±SD, read-out: LC50 values of compounds for cell line, HL-60/adr); 6.59 ± 0.96 µM in [5] (Table 2, trypan blue, 24 h, M ± SD, read-out: LC50 Values of Compounds for Cell Line, HL-60); 4.69 µM in data set [5] (supplement Table 4S, M±SD, read-out: LC50 values of compounds for cell line, HL-60); 1.9 ± 0.24 µM in [7] (HCT-116, 24 h, read-out: LC50 Values of Compounds for Cell Line, HCT-116). The CC50 in data set [7] (HCT-116, read-out: LC50 values of compounds for cell line, HCT-116) was determined as 3.1 µM. Moreover, the IC50 was 1.77 µM on human recombinant HDAC1; 16.6 µM at human recombinant CK2α (radiometric method, 20 µM ATP, read-out: Inhibitory activity IC50 on CK2); 1.13 µM on HDAC6. In addition, the depolarization of mitochondria was 34.73% in the data set with HL-60/wt cells (10 µM) and 49.98% in the data set on HL-60/wt cells (30 µM). Also, the CC50 at 24 h came out at 13.6 ± 0.8 µM in data set [6] (LC50 Values of Compounds for Cell Line, HEK293, Table 2, trypan blue, 24 h, M ± SD) and 8.41 µM in data set [6] (LC50 values of compounds for cell line, HEK293, supplement Table 4S, M±SD). Besides, the “fold difference in the CK2 inhibitory activity compared to 11b” value on human recombinant CK2α (compared to 11b) is listed as 4.5 fold.
As for `CN1C(=O)C2Cc3c(c4ccccc4n3Cc3ccc(C(=O)NO)cc3)C(C2)C1=O` (stereo not shown) [Marbostat-100], the Ki on HDAC-6 is 0.0007 µM.
Consider `C/C=C1\NC(=O)[C@H]2CSSCC/C=C/[C@H](CC(=O)N[C@H](C(C)C)C(=O)N2)OC(=O)[C@H](C(C)C)NC1=O` [Romidepsin], for which the IC50 in the data set on HDAC was 0.036 µM.
On to `O=C(CCn1cc(CCn2nc3c(Br)c(Br)c(Br)c(Br)c3n2)nn1)NO` [Compound 2], for which the IC50 in the data set on CK2 was 50 µM; with HDAC1, 2.2 µM. For the same compound, the “cytotoxic activity LC50” value with two mammalian cell lines was “low micromolar”.
Turning to `COc1cccc2c1C(=O)c1c(O)c3c(c(O)c1C2=O)C[C@@](O)(C(=O)CO)C[C@@H]3O[C@H]1C[C@H](N)[C@H](O)[C@H](C)O1` [doxorubicin], the entries for the “resistance of the MDR cell model to the drug” value with HL-60/vinc line and with HL-60/adr line were 140 fold and 80 fold, respectively.
